# Test results as given in ChEMBL document CHEMBL1157539, “Thousands of chemical starting points for antimalarial lead identification” (Nature, 2010).
# Tested on: Plasmodium falciparum
# Test: GSK_TCMDC: Inhibition of Plasmodium falciparum 3D7 in whole erythrocytes, using parasite LDH activity as an index of growth.
# Assay type: functional, organism-based
# Settings: Plasmodium falciparum, 3D7
row,Compound,XC50
1,O=C(/C=C/c1ccc(Cl)c(Cl)c1)NCCCCCN1CCC(NC(=S)Nc2ccc(Cl)c(Cl)c2)CC1,528 nM
2,NC(=O)c1cc(-c2ccccc2)cc2c(C3CCC(NCc4ccccc4)C3)c[nH]c12 (configuration not stated),910 nM
3,COC(=O)c1ccc(CC(C)NCC(O)c2ccccc2Cl)cc1 (configuration not stated),1010 nM
4,CN(C)CCN(C)Cc1nc(-c2ccc3c(Nc4ccc(Oc5ccccc5)cc4)ccnc3c2)cs1,212 nM
5,N#Cc1ccc2c(c1)CCN(CCC1CCC(NC(=O)Nc3cnc4ccccc4c3)CC1)C2 (configuration not stated),768 nM
6,O=C(Nc1ccc(CN2CCN(S(=O)(=O)c3cccc(Cl)c3)CC2)cc1)c1cccs1,1080 nM
7,CCN(CC)CCN(Cc1ccc(-c2ccc(C(F)(F)F)cc2)cc1)C(=O)Cn1c(CCc2cc(F)c(F)c(F)c2)nc(=O)c2ccccc21,827 nM
8,Cc1cc(Oc2ccc(-n3ccnc3)cc2)nc(N2CCN(CCCN3CCCC3)CC2)n1,928 nM
9,CC(C)c1ccc(CN2CCC(CNC(=O)c3cc(-c4ccccc4F)cs3)C2)cc1 (configuration not stated),993 nM
10,Cc1[nH]c2ccc(C#N)cc2c(=O)c1Br,640 nM
11,COc1cc2c(cc1C(F)(F)F)N(C(=O)Nc1cc(F)c(F)c(-c3cccnc3)c1)CC2,626 nM
12,CCC1CN2CCc3c([nH]c4ccccc34)C2CC1CC1NCCc2cc(OC)c(OC)cc21 (configuration not stated),836 nM
13,Cc1cc(C)c(NC(=O)N2CCCN(CCCCCNC(=O)/C=C/c3ccc(Cl)c(Cl)c3)CC2)c(C)c1,968 nM
14,O=C(/C=C/c1ccc(Cl)c(Cl)c1)N1CCC(CN2CCC(c3c[nH]c4cc5c(cc34)OCO5)CC2)CC1,680 nM
15,CC(C)Cc1csc(NC(=O)C=Cc2ccco2)c1C(=O)O,305 nM
16,Cc1cccc(Cn2nc(-c3ccccc3)c(N3CCCCC3)cc2=O)c1,464 nM
17,Cc1cc(NCCc2ccccc2)nc(NC(=N)Nc2cccc(F)c2)n1,899 nM
18,CCCCN1Cc2c(n(CC(=O)Nc3ccccc3)c3cc(-c4ccccc4)nn3c2=O)C1=O,811 nM
19,CC(C)CCNCc1c(O)ccc2ccccc12,1670 nM
20,CCCCN(CCCC)CCCN(CCCN(CCCC)CCCC)c1cc(C)nc(Nc2ccc3cc(Br)ccc3c2)n1,320 nM
21,Cc1noc(C)c1-c1cccc(CNCc2ccc(-c3cccc(-c4nc5cccc(C)c5[nH]4)c3)cc2)c1,215 nM
22,CC(=O)Nc1ccc(C(=O)Nc2ccc(-c3cccc(-c4nc5cccc(C)c5[nH]4)c3)cc2)cn1,265 nM
23,Cc1cccc2nc(-c3ccc(-c4ccc(CNCCN5CCNCC5)cc4)s3)[nH]c12,1150 nM
24,CCCCOC(=O)NCCCC[C@H](NC(=O)OC(C)(C)C)C(=O)N[C@H](C(=O)OC(c1ccccc1)c1ccccc1)[C@H]1O[C@@H](n2ccc(=O)[nH]c2=O)[C@@H]2OC(C)(C)O[C@@H]21,1090 nM
25,CCN(CC)CCn1c2ccccc2c2ccc(C(=O)Nc3ccc4sc(C)nc4c3)cc21,1060 nM

row,Compound,XC50
1,CCCc1cc2c3c(N)nc(N)nc3ccc2n1C(CC)CC,3.2 nM
2,O=C(Nc1ccc(CN2CCOCC2)cc1)c1ccc(-c2ccc(Cl)cc2)o1,862 nM
3,c1ccc2[nH]c(-c3ccc(-c4ccc(CN5CCN(c6ccncc6)CC5)cc4)s3)nc2c1,202 nM
4,Cc1ccc(NC(=O)c2ccc(N3CCN(c4ccncc4)CC3)cc2)cc1F,736 nM
5,O=c1nc2[nH]c3ccccc3n2c(=O)[nH]1,174 nM
6,Cc1cc(=NN=CC=Cc2ccccc2)c2cc(F)ccc2[nH]1,734 nM
7,Fc1ccc2[nH]c(-c3ccc(-c4ccc(CNCc5ccccc5)cc4)cc3)nc2c1,284 nM
8,CCN(CC)CCOc1ccc(C(O)(C#CC(O)(c2ccc(Br)cc2)c2ccc(OCCN(CC)CC)cc2)c2ccc(Br)cc2)cc1 (configuration not stated),616 nM
9,CO/C(=C\C=C\c1cc2cc(Cl)c(Cl)cc2[nH]1)C(=O)NCCCN1CCN(c2cccc(OC)c2)CC1,845 nM
10,CCOC(=O)c1nc(-c2cccnc2)[nH]c1NC(=S)NCc1ccccc1,711 nM
11,COc1ccc(C(=O)Nc2ccc3nc(N4CCCCC4)cc(C)c3c2)cc1OC,994 nM
12,COc1cc2nc(C)nc(Nc3ccc4c(ccn4Cc4ccccc4)c3)c2cc1OC,556 nM
13,COc1cccc(C(=O)Nc2ccc(-c3nc4ccccc4[nH]3)cc2)c1,802 nM
14,CC(C)(C)c1cc(C(=O)Nc2ccc(C(=N)N)cc2)c(O)c(C(C)(C)C)c1,763 nM
15,CC1(C)NC(N)=NC(=N)N1OCCCNC(=O)c1ccc(C(=O)NCCCON2C(=N)N=C(N)NC2(C)C)cc1,21.6 nM
16,COC(=O)c1cc(OC2CCOC2=O)cc2c1OC(C)(C)O2 (configuration not stated),806 nM
17,O=C(NCCCCN1CCC(c2ccc3ccccc3c2)CC1)c1ccc(NC(=O)c2ccc(Cl)cc2)cc1,226 nM
18,CCc1cccc(OCCCON2C(=N)N=C(N)NC2(C)C)c1,3.2 nM
19,CCC(C)(C)c1ccc(S(=O)(=O)Nc2ccc(Cl)c(OCCN3CCCCC3)c2)cc1,1110 nM
20,O=C(/C=C/c1ccc(Cl)c(Cl)c1)NCCCCCN1CCN(C(=O)Nc2ccc(OC(F)F)cc2)CC1,945 nM
21,CC(C)(C)COc1ccc2c(N)n[nH]c2c1,789 nM
22,Oc1cccc(C2CCCN(CCc3c[nH]c4ccccc34)C2)c1 (configuration not stated),857 nM
23,CCOC(=O)CCCOc1cc(Cc2cnc(N)nc2N)cc(OC)c1OC,239 nM
24,Cc1cccc2nc(-c3ccc(-c4cccc(CN5CCCC(N)C5)c4)s3)[nH]c12 (configuration not stated),539 nM
25,COc1ccc(OC)c(-c2cccc(-c3cccc(NC(=O)c4ccc([N+](=O)[O-])o4)c3)n2)c1,371 nM

row,Compound,XC50
1,Fc1ccc2[nH]c(-c3cccc(-c4ccc(CNCCc5ccncc5)cc4)c3)nc2c1,115 nM
2,Cc1cc(-c2ccc(NC(=O)Nc3ccc4nccc(N5CCN(C)CC5)c4c3)cc2C)cc(C)n1,153 nM
3,COc1ccc(-c2ccc(NC(=O)c3cccc(C#N)c3)cc2)cc1CN1CCCC(C(N)=O)C1 (configuration not stated),863 nM
4,CCC(=O)c1cc(C(=O)NCCc2cccc(OC)c2)ccc1OC,902 nM
5,COc1cccc2c(NN=Cc3ccccc3F)ccnc12,941 nM
6,CC(C)C[C@@H](NC(=O)OC(C)(C)C)C(=O)Nc1ccc(Cc2ccc(NC(=O)[C@@H](CC(C)C)NC(=O)OC(C)(C)C)cc2)cc1,207 nM
7,COc1ccc(CCNCCCCCCNCCc2ccc(-c3ccccc3)cc2)cc1OC,958 nM
8,C=CCOc1ccc(C2C(C(=O)OC)=C(C)NC3=C2C(=O)c2ccccc23)cc1OC (configuration not stated),877 nM
9,O=C(Nc1cccc(F)c1)N(Cc1ccc(-c2cccc(CN3CCNCC3)c2)cc1)C1CCN(Cc2ccccc2)CC1,763 nM
10,CCN(CC)C(=O)c1cccc(C=Cc2ccc(-c3c(C)[nH]c(C)c(Cl)c3=O)cc2)c1,259 nM
11,c1cc(-c2ccc(CN3CCCCC3)cc2)cc(-c2nc3ccccc3[nH]2)c1,585 nM
12,O=c1cc(NCCCNCc2cn(S(=O)(=O)c3ccccc3)c3ccccc23)[nH]c2ccccc12,879 nM
13,Cc1cccc2nc(-c3ccc(-c4cccc(NC(=O)Nc5ccsc5)c4)s3)[nH]c12,542 nM
14,Cc1cc(OCCCNC(=N)c2ccc3ccccc3c2)c(C(C)C)cc1Cl,973 nM
15,O=C(/C=C/c1cccc2ccccc12)NCCCCCN1CCC(c2c[nH]c3ccccc23)CC1,1140 nM
16,COc1ccc2nc(C)cc(Nc3ccc(N4CCN(C)CC4)cc3)c2c1,788 nM
17,COc1ccc2nccc([C@@H](O)CN3CCC(NC(=O)c4ccc(-c5ccccc5)s4)CC3)c2c1,310 nM
18,CCn1c(Sc2ccc(C#N)c([N+](=O)[O-])c2)nnc1-c1ccc(OC)cc1,805 nM
19,O=[N+]([O-])c1ccc(/C=N/Nc2cc(-c3ccccc3)nc3ccccc23)o1,863 nM
20,COc1cc(C=CC(=O)NC2CCC(CN3CCC(c4c[nH]c5ccccc45)CC3)CC2)cc(OC)c1 (configuration not stated),807 nM
21,O=C(Nc1cccc(Cl)c1)N(CCCn1ccnc1)Cc1csc(-c2ccc(CNCc3ccccc3)cc2)n1,538 nM
22,COc1ccc2c(=NN=Cc3ccc(OC)c4ccccc34)cc(C)[nH]c2c1,599 nM
23,COc1cc2c(cc1N1CCN(C)CC1)N(C(=O)Nc1ccc(-c3ccncc3)c(Cl)c1Cl)CC2,608 nM
24,Cc1cc(Cl)ccc1OC(C)C(=O)N1CCc2ccccc21 (configuration not stated),668 nM
25,N#Cc1ccc(-c2ccc(C(=O)Nc3ccc4c(c3)CCN(C3CCC3)CC4)nc2)cc1,696 nM

row,Compound,XC50
1,CCCNCc1ccc(-c2ccc(CN(CCOC)C(=O)c3cscn3)cc2)nc1,178 nM
2,Cc1ccc(Oc2ccc(CNc3nc(Nc4cccc(F)c4)nc(Nc4cccc(F)c4)n3)cc2)cc1,1210 nM
3,Nc1ncc(-c2ccccc2)cc1-c1nc2cc(Cl)c(F)cc2[nH]1,263 nM
4,Cc1cccc(CN2CCC(C(=O)Nc3ccc(-c4nc5ccccc5[nH]4)cc3)CC2)n1,919 nM
5,CC(C)C1C(=O)N(S(C)(=O)=O)C2CCN(C(=O)c3ccc(CN4CCCCC4)c([N+](=O)[O-])c3)C12 (configuration not stated),620 nM
6,COc1ccc2ncc(Cl)c(NCC3(O)CCC(NCc4ccc5c(n4)NC(=O)CS5)CC3)c2n1 (configuration not stated),597 nM
7,CC(C)(C)NC(=O)C(c1ccc(F)cc1)N(C(=O)c1ccc(CN2CCOCC2)o1)c1ccc(C2CCCCC2)cc1 (configuration not stated),925 nM
8,Cc1cc(N2C(N)=NC(N)=NC2(C)C)ccc1Cl,20.9 nM
9,O=C(c1cc(-c2cccs2)n[nH]1)N1CCN(S(=O)(=O)c2ccc(Br)cc2)CC1,357 nM
10,COc1ccc2nc(-c3cc(-c4ccc(NC(=O)C(C)C)cc4)cnc3N)[nH]c2c1,557 nM
11,Cc1ccccc1C1CCN(C2CCC(NC(=O)c3ccc(-c4cccs4)s3)CC2)CC1 (configuration not stated),1030 nM
12,O=[N+]([O-])c1ccc2nc(Nc3cccc(C(F)(F)F)c3)c(Nc3cccc(C(F)(F)F)c3)nc2c1,483 nM
13,O=C(NCc1ccc(F)cc1)c1cnc(N2CCN(c3ccncc3)CC2)c(Cl)c1,1390 nM
14,CN(C)CCCOc1cccc(NC(=O)Nc2ccc(-c3ccccc3)cc2)c1,868 nM
15,CC1CCC(NC(=O)c2nn(-c3ccc(Cl)cc3)c(=O)c3ccccc23)CC1 (configuration not stated),1080 nM
16,Oc1ccc(Nc2ccnc3cc(Cl)ccc23)cc1,744 nM
17,Nc1c(Cl)cc(C(O)CNCCCCCOCCc2ccc3ccccc3n2)cc1Cl (configuration not stated),1020 nM
18,Cc1ccc(-n2c(C)nc3c(Nc4ccc(-c5ccncc5)cc4)ncnc32)c(C)c1,101 nM
19,Cc1cccc2nc(-c3ccc(-c4ccc(CN5CCC(CCN6CCCCC6)CC5)cc4)cc3)[nH]c12,144 nM
20,C=CCn1c(=N)c(C(=O)NCc2ccc(F)cc2)cc2c(=O)n3cccc(C)c3nc21,1170 nM
21,Clc1ccc(C=NN=c2cc[nH]c3ccccc23)cc1,723 nM
22,CC(C)N1CCN(C(=O)c2ccc(CN(C)CCCN3CCN(c4cccc(Cl)c4Cl)CC3)s2)CC1,994 nM
